The inhibition is the drop in the measured response relative to a control, in per cent.

The target of experiment [1] is Serine/threonine-protein kinase Chk2 (Homo sapiens) (UniProt O96017). Nature of the experiment: Inhibition of human full length CHK2 expressed in baculovirus assessed as substrate phosphorylation using fluorescence-labelled peptides as substrate at 8 uM after 90 mins by microfluidic peptide phosphorylation assay.
The target of experiment [2] is Ribosomal protein S6 kinase alpha-2 (Homo sapiens) (UniProt Q15349). Kind of experiment: Inhibition of human full length RSK3 expressed in baculovirus assessed as substrate phosphorylation using fluorescence-labelled peptides as substrate at 8 uM after 90 mins by microfluidic peptide phosphorylation assay.
The target in experiment [3] is Protein kinase C beta type (Homo sapiens) (UniProt P05771). Nature of the experiment: Inhibition of human full length PKC beta2 expressed in baculovirus assessed as substrate phosphorylation using fluorescence-labelled peptides as substrate at 8 uM after 90 mins by microfluidic peptide phosphorylation assay.
Protein kinase C beta type (Homo sapiens), sequence (P05771 2-671 limits assumed): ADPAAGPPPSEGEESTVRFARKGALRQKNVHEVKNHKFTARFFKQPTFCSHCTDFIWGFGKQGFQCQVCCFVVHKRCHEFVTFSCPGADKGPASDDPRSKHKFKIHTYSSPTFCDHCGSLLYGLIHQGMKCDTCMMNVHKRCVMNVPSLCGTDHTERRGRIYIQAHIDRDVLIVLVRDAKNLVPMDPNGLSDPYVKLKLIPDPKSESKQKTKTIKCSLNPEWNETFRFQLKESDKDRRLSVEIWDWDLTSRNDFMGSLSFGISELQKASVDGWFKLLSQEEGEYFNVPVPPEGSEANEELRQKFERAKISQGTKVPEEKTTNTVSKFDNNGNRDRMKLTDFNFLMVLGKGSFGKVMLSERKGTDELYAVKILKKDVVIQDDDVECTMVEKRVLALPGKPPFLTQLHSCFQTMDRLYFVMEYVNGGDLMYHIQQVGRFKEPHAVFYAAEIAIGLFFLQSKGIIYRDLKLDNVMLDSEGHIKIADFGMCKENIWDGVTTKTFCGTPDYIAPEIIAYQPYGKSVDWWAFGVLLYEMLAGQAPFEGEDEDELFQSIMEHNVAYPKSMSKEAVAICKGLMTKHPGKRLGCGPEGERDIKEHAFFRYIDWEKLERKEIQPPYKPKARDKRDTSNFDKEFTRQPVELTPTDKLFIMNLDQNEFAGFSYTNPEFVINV
Experiment [4] concerns the target Calcium/calmodulin-dependent protein kinase type II subunit gamma (Homo sapiens) (UniProt Q13555). Kind of experiment: Inhibition of human CAMK2 gamma catalytic domain expressed in baculovirus assessed as substrate phosphorylation using fluorescence-labelled peptides as substrate at 8 uM after 90 mins by microfluidic peptide phosphorylation assay.
For experiment [5], the target named is Protein kinase C delta type (Homo sapiens) (UniProt Q05655). Kind of experiment: Inhibition of human truncated PKC delta expressed in baculovirus assessed as substrate phosphorylation using fluorescence-labelled peptides as substrate at 8 uM after 90 mins by microfluidic peptide phosphorylation assay.
The target of experiment [6] is T1, Serine/threonine-protein kinase Sgk1 (Homo sapiens) (UniProt O00141).
T1 sequence (whole entry): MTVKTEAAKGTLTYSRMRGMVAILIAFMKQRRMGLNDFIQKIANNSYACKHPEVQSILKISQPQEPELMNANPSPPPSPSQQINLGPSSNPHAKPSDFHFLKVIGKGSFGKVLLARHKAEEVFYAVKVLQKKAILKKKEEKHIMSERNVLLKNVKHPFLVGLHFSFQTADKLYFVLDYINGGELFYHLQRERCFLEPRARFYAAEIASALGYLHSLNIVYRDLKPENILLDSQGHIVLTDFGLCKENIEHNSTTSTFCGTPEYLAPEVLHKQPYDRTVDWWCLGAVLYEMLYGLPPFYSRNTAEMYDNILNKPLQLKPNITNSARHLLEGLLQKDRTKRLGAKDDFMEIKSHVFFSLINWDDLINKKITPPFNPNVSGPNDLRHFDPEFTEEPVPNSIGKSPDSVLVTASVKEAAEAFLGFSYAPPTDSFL
As to conditions: 0.1 uM.
Description: Inhibition of human truncated SGK1 expressed in baculovirus assessed as substrate phosphorylation using fluorescence-labelled peptides as substrate at 0.1 uM after 90 mins by microfluidic peptide phosphorylation assay

Experiment [7] concerns the target Receptor-type tyrosine-protein kinase FLT3 (Homo sapiens) (UniProt P36888). Kind of experiment: Inhibition of human FLT3 catalytic domain expressed in baculovirus assessed as substrate phosphorylation using fluorescence-labelled peptides as substrate at 0.06 uM after 90 mins by microfluidic peptide phosphorylation assay.
Experiment [8] addresses Fibroblast growth factor receptor 1 (Homo sapiens) (UniProt P11362). Kind of experiment: Inhibition of human FGFR1 catalytic domain expressed in baculovirus assessed as substrate phosphorylation using fluorescence-labelled peptides as substrate at 0.06 uM after 90 mins by microfluidic peptide phosphorylation assay.
Experiment [9] concerns the target Proto-oncogene tyrosine-protein kinase Src (Homo sapiens) (UniProt P12931). Nature of the experiment: Inhibition of human full length SRC expressed in baculovirus assessed as substrate phosphorylation using fluorescence-labelled peptides as substrate at 0.06 uM after 90 mins by microfluidic peptide phosphorylation assay.
In experiment [10] the target is T2, cGMP-dependent protein kinase 1 (Homo sapiens) (UniProt Q13976).
T2 sequence (whole entry): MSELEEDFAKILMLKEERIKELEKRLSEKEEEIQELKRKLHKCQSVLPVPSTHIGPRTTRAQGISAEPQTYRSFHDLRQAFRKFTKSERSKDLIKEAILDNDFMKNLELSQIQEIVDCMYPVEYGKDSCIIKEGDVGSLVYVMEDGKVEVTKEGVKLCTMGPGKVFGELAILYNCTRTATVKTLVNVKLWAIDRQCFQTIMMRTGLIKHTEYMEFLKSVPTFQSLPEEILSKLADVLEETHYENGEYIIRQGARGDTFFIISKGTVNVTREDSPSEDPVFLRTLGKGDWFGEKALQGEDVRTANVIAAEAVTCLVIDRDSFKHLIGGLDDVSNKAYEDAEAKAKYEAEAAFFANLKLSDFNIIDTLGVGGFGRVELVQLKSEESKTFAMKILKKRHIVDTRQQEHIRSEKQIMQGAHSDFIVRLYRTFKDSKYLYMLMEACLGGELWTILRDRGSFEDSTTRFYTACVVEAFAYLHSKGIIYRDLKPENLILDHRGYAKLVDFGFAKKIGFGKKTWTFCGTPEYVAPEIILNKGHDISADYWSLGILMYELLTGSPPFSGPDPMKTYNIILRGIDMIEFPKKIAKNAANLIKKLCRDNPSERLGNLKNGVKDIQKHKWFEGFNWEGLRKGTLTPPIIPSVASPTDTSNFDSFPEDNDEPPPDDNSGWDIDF
Nature of the experiment: Inhibition of human full length PKG-1a expressed in baculovirus assessed as substrate phosphorylation using fluorescence-labelled peptides as substrate at 0.2 uM after 90 mins by microfluidic peptide phosphorylation assay.

Experiment [11] addresses Calcium/calmodulin-dependent protein kinase type II subunit delta (Homo sapiens) (UniProt Q13557). Nature of the experiment: Inhibition of human full length CAMK2D expressed in baculovirus assessed as substrate phosphorylation using fluorescence-labelled peptides as substrate at 0.2 uM after 90 mins by microfluidic peptide phosphorylation assay.
The target in experiment [12] is Aurora kinase B (Homo sapiens) (UniProt Q96GD4). Nature of the experiment: Inhibition of human full length AurB expressed in baculovirus assessed as substrate phosphorylation using fluorescence-labelled peptides as substrate at 9 uM after 90 mins by microfluidic peptide phosphorylation assay.
Aurora kinase B (Homo sapiens), sequence (Q96GD4 whole entry): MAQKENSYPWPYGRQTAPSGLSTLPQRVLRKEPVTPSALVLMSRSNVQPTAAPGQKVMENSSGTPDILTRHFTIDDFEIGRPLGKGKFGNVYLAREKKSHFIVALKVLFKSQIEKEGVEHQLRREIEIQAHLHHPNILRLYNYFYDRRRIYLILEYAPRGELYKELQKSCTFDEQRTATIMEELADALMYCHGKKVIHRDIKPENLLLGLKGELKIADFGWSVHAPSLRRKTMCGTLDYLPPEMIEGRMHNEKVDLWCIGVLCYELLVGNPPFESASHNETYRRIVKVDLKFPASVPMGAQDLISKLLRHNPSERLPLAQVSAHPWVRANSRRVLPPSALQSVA
Experiment [13] has as its target Tyrosine-protein kinase BTK (Homo sapiens) (UniProt Q06187). Kind of experiment: Inhibition of human full length BTK expressed in baculovirus assessed as substrate phosphorylation using fluorescence-labelled peptides as substrate at 95 uM after 90 mins by microfluidic peptide phosphorylation assay.
The target in experiment [14] is Tyrosine-protein kinase ABL1 (Homo sapiens) (UniProt P00519). Kind of experiment: Inhibition of human full-length ABL expressed in baculovirus assessed as substrate phosphorylation using fluorescence-labelled peptides as substrate at 95 uM after 90 mins by microfluidic peptide phosphorylation assay.
Tyrosine-protein kinase ABL1 (Homo sapiens), sequence (P00519 whole entry, the tested form may be a part): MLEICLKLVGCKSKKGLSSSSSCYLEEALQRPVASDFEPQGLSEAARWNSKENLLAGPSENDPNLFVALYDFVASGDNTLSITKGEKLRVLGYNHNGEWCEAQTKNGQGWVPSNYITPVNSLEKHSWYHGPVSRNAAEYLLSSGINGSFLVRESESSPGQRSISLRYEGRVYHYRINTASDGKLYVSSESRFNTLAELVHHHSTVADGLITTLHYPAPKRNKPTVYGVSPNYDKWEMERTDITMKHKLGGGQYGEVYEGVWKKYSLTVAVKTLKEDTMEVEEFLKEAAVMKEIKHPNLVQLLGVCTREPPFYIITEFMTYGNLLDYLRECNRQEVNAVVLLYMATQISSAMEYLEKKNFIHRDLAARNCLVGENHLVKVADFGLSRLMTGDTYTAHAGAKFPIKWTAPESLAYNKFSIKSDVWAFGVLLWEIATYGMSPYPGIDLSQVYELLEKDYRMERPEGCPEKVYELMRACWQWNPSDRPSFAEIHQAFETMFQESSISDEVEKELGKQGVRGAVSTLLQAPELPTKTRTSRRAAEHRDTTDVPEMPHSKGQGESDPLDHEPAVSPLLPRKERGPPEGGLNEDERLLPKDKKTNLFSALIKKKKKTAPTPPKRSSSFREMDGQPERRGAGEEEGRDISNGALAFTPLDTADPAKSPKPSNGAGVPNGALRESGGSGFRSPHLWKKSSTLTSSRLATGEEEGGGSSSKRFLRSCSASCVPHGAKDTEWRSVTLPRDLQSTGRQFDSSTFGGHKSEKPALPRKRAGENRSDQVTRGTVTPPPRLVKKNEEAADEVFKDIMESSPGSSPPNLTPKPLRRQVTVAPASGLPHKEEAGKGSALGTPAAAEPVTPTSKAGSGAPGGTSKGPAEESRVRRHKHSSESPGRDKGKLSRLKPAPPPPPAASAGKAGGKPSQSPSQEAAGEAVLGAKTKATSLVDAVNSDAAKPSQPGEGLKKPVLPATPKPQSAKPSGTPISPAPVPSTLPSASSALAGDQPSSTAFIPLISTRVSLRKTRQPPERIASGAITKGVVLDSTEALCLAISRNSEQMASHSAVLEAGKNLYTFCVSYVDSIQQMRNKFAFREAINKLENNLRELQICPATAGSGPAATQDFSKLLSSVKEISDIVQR
For experiment [15], the target named is Mitogen-activated protein kinase kinase kinase kinase 4 (Homo sapiens) (UniProt O95819). Kind of experiment: Inhibition of human HGK catalytic domain expressed in baculovirus assessed as substrate phosphorylation using fluorescence-labelled peptides as substrate at […] after 90 mins by microfluidic peptide phosphorylation assay.
The target in experiment [16] is Tyrosine-protein kinase HCK (Homo sapiens) (UniProt P08631). Nature of the experiment: Inhibition of human HCK catalytic domain expressed in baculovirus assessed as substrate phosphorylation using fluorescence-labelled peptides as substrate at […] after 90 mins by microfluidic peptide phosphorylation assay.
Tyrosine-protein kinase HCK (Homo sapiens), sequence (P08631 2-526 limits assumed): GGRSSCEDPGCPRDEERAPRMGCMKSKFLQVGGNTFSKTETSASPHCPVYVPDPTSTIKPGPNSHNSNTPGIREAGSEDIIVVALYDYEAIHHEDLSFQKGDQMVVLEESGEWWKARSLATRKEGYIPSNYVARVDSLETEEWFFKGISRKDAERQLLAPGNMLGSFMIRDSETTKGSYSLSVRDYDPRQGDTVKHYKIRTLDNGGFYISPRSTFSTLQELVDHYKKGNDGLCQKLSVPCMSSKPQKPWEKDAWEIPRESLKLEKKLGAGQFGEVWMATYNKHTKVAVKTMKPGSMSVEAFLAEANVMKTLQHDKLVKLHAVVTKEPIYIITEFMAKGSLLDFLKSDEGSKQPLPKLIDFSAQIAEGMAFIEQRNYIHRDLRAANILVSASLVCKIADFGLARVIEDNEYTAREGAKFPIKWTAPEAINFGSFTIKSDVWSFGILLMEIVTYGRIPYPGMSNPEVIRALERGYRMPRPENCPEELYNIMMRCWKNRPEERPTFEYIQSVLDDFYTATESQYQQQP

Calcium/calmodulin-dependent protein kinase type II subunit gamma (Homo sapiens), sequence (Q13555 whole entry, the tested form may be a part): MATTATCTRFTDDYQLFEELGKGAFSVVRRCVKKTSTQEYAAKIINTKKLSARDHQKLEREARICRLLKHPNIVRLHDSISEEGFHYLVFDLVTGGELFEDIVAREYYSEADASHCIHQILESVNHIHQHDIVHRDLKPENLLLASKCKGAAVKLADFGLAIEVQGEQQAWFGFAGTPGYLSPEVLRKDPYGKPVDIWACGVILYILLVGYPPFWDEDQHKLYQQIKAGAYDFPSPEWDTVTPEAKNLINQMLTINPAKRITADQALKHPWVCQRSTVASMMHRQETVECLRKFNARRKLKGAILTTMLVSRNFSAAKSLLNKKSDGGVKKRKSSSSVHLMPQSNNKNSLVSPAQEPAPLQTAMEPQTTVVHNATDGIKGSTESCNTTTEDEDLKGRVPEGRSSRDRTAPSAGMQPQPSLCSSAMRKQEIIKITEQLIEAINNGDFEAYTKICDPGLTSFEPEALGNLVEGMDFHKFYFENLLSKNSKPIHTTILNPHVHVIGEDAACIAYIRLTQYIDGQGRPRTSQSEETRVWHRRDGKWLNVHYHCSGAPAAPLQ
Calcium/calmodulin-dependent protein kinase type II subunit delta (Homo sapiens), sequence (Q13557 whole entry): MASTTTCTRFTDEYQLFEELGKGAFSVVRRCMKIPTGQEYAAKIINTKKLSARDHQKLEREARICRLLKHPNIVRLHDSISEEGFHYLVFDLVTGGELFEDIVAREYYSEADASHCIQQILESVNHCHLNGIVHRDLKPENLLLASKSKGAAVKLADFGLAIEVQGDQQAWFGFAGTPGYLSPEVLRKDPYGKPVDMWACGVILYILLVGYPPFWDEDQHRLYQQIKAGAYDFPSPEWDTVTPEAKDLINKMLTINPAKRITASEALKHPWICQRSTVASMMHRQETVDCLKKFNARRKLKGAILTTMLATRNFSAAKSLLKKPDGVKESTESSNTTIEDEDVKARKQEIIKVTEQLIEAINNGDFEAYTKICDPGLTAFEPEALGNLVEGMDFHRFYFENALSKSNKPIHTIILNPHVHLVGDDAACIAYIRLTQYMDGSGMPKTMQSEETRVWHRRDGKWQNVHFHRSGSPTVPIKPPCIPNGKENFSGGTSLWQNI
Receptor-type tyrosine-protein kinase FLT3 (Homo sapiens), sequence (P36888 whole entry, the tested form may be a part): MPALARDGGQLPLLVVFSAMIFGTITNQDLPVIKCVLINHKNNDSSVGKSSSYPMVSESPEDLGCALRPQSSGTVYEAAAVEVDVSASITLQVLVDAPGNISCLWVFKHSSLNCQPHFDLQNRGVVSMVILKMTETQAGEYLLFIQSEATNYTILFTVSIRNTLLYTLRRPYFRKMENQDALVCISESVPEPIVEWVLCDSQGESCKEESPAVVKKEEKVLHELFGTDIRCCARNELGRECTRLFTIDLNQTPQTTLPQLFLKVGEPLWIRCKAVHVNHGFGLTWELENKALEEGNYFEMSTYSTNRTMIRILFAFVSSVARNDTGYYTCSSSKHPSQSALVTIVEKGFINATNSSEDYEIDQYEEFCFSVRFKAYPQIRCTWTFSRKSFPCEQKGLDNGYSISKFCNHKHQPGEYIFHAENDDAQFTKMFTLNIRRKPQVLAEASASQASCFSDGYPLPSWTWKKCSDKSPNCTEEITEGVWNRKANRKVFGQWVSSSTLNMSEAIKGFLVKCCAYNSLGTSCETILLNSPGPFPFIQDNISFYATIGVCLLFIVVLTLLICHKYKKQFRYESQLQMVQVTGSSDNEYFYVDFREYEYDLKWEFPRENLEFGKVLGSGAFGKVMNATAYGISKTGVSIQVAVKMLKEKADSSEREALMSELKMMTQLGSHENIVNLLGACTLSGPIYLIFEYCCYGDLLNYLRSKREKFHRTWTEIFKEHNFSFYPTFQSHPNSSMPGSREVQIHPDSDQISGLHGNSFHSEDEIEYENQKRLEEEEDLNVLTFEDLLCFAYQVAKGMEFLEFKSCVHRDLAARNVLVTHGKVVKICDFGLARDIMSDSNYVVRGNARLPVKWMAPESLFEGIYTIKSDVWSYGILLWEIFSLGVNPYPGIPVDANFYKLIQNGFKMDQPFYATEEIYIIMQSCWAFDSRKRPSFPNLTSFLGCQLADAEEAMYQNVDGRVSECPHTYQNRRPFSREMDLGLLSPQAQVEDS

Turning to `NCC1CCN(c2ncnc3[nH]ccc23)CC1`, the inhibition in experiment [1] turned out to be 0%; in [2] it was 28%; in [3] it was 88.5%; in [4], 20.5%; in [5], 67%.

Regarding `C[C@H](CN(C)C)Oc1nc(Nc2cc3cccc(Cl)c3cn2)cnc1C#N`, the inhibition in experiment [6] turned out to be 0%.

Turning to `NC1(Cc2ccc(Cl)cc2)CCN(c2ncnc3[nH]ccc23)CC1`, the inhibition in experiment [7], in experiment [8] and in [9] was 0% each time.

As for `Clc1ccc(C2(c3ccc(-c4ncnc5[nH]cnc45)cc3)CCNCC2)cc1`, the inhibition in experiment [10] was found to be 88.5%; in [11] it was 16%.

Regarding `NCC1CN(c2ncnc3[nH]c4cnccc4c23)CCO1` (stereo unspecified), the inhibition in experiment [12] came out at 31%.

As for `NCCc1ccc(-c2ncnc3[nH]cnc23)cc1`, the inhibition in [13] is 17%; in experiment [14] it was 78%.

On to `COC(=O)c1cnc(Nc2cnc(C#N)cn2)cc1NCC1CCNCC1`, for which the inhibition in [15] is 3%; in [16] it was 11%.

The values are drawn from ChEMBL document CHEMBL3132769, “Fragment growing to retain or alter the selectivity of anchored kinase hinge-binding fragments” (Medchemcomm, 2014).
